System: M. tuberculosis H37Rv growth inhibition
Experiment: M. tuberculosis H37Rv growth inhibitors, H37Rv strain (AID 1626)
Conditions: for IC90: measured here: IC90 against H37Rv; for CC50: measured here: Vero cell cytotoxicity

| Compound | IC50 [µM] | IC90 [µM] | CC50 [µM] |
| --- | --- | --- | --- |
| Cc1cccc(-n2cc(CN(C)Cc3nccn3C)c(-c3cccc(F)c3)n2)c1 | 7.43 | 12.1 | > 40 |
| CC(C)=CCN1CCN(CCC2=C(C)CCCC2(C)C)CC1CCO (centres undefined) | 5.88 | 6.66 |  |
| Cc1ccc(-c2csc(NC(=O)C[n+]3cc(-c4ccc(C)cc4)n4c3CCC4)n2)cc1 | 11.3 | 12.6 |  |
| Oc1ccccc1CNc1cnc2ccccc2c1 | 11.1 | > 100 | > 40 |
| Cc1ccc(-c2ccc(C3C(C#N)=C(N)Oc4n[nH]c(C)c43)o2)cc1 (centres undefined) | 2.37 | > 100 | > 40 |
| COc1ccc(C(CCNCc2ccc(F)cc2)c2ccc(F)cc2)cc1 (centres undefined) | 5.7 | 6.62 | 23.2 |
| CCOC(=O)Cn1nnc(-c2ccc(OCC(C)C)cc2)n1 | 16.6 | > 100 |  |
| COc1cccc2c1C(=O)c1c(O)c3c(c(O)c1C2=O)C[C@@](O)(C(=O)CO)C[C@@H]3O[C@H]1C[C@H](N)[C@@H](O)[C@H](C)O1 | 14.9 | 26.4 | 7.47 |
| Nc1ccc2oc(-c3cccc(Br)c3)nc2c1 | 3.98 | > 100 |  |
| CC(C)(C)C(=O)COC(=O)c1cc2ccccc2cc1O | 2.73 | 16.5 |  |
| COc1ccccc1NC(=O)CN1CCN(C2c3ccccc3-c3ccccc32)CC1 |  | > 100 | > 40 |
| COc1cc(CNc2ccc(N3CCN(C(C)=O)CC3)cc2)ccc1OCc1ccc(F)cc1 |  |  | > 40 |
| c1ccc2c(NC3C4CC5CC(C4)CC3C5)nc(N3CCOCC3)nc2c1 (centres undefined) | 1.89 | 3.08 | 27.9 |
| O=C(NCCc1ccc(Cl)cc1)C1CCC(CNc2c(N3CCCCC3)c(=O)c2=O)CC1 (centres undefined) | 11.8 | 13.4 |  |
| CCOC(=O)c1ccc(N/C=C/C(=O)c2ccc(OC)c(OC)c2)cc1 | 3.44 | > 100 |  |
| Cc1c(C(=O)Oc2cccc3cccnc23)cccc1[N+](=O)[O-] | 6.52 | 7.5 | > 40 |
| Brc1ccc(CSc2ncn[nH]2)cc1 | 46.2 | > 100 | > 40 |
| CCOC(=O)CSCC(=O)Nc1c(C(=O)C2CC2)oc2ccccc12 | 5.86 | 9.32 |  |
| Nc1ccc2c(c1)C(=O)C(=O)c1ccccc1-2 | 0.401 | 13.5 | 3.16 |
| Brc1ccc(OCc2nc(-c3ccccn3)n[nH]2)cc1 |  |  | 10.6 |
| O=C1c2cccc3c(N4CCOCC4)c([N+](=O)[O-])cc(c23)C(=O)N1c1cccc2ccccc12 | 5.97 | 6.82 | > 40 |
| CCN(Cc1ccccc1)c1ccc(/C=N/N=C(N)N)cc1 | 5.5 | 6.21 | 8.71 |
| CCC(C)Nc1nc2c(C)cccn2c(=O)c1C=Nc1ccc(OC)cc1 (centres undefined) | 52.4 | > 100 |  |
| CC(=O)c1ccc(NC(=O)c2cc(CC(C)C)on2)cc1 | 7.21 | 42.9 |  |
| O=C(Nc1ccc(-c2csc(Nc3cccc(C(F)(F)F)c3)n2)cc1)c1cccc(C(F)(F)F)c1 | 0.954 | 1.53 | 17.6 |
| CCc1cccc2c1NC(=O)C21N2CCCC2C(C(=O)c2ccc3ccccc3c2)C12C(=O)Nc1ccccc12 (centres undefined) | 23.8 | > 100 | > 40 |
| O=C(CNCc1ccccc1)Nc1ccc(Oc2ccccc2)cc1 | 13.2 | > 100 |  |

| Compound | IC50 [µM] | IC90 [µM] | CC50 [µM] |
| --- | --- | --- | --- |
| CCCCOc1ccc(NC(=O)CSc2nnnn2C)cc1 | 34 | > 100 |  |
| CCOc1ccc(NC(=O)CSC2=NCCN2)cc1 | 11.6 | > 100 |  |
| CCCCCc1cc(=O)oc2c(C(CCN3CCCC(C)C3)c3ccc(OC)cc3)c(OC)cc(OC)c12 (centres undefined) | 2.18 | 3.26 | 17.1 |
| CNc1cc(C(F)(F)F)nc(-c2ccccn2)n1 | 40.7 | > 100 |  |
| O=C(C[n+]1cc(-c2ccc(Cl)cc2)n2c1CCC2)N1c2ccccc2Sc2ccccc21 | 12.1 | 13.7 |  |
| C=C1C(=O)O[C@@H]2C[C@@H](C)[C@@H]3C=CC(=O)[C@@]3(C)[C@@H](OC(=O)CC(=O)O[C@H]3[C@@H]4C(=C)C(=O)O[C@@H]4C[C@@H](C)[C@@H]4C=CC(=O)[C@]43C)[C@H]12 | 1.47 | 3.35 | 1.4 |
| CCOc1ccc(N=Cc2c(O)n(-c3cccc(C)n3)c(=O)c3ccccc23)cc1 | 14.7 | > 100 |  |
| O=C1c2ccccc2C(=O)N1CCCCN(C(=O)c1cc([N+](=O)[O-])cc([N+](=O)[O-])c1)c1ccc(Cl)cc1 | 1.23 | 1.65 |  |
| O=C(CSc1nccc(=O)[nH]1)Nc1ccc(Br)c(Cl)c1 | 40.6 | > 100 |  |
| CCCC(=O)OCCNc1cc(SCc2ccco2)c2nonc2c1[N+](=O)[O-] | 4.2 | 9.07 |  |
| O=C(CNC1CCCC1)Nc1ccc(N2CCCCCC2)cc1 | 8.04 | 10.2 | 37.7 |
| CC(C)(C)c1cc(NCc2ccccn2)n2ncc(-c3ccc(Cl)cc3)c2n1 | 0.655 | 6.15 | > 40 |
| CSc1ccc(NC(=O)N2CCN(c3nc4ccccc4s3)CC2)cc1 | 9.18 | > 100 | > 40 |
| N#C/C(=C/c1ccc(-c2ccc(Br)cc2)o1)C(=O)NC1CCCCC1 |  | > 100 | > 40 |
| O=C(CN1C(=O)C2C3CCC(C3)C2C1=O)Oc1ccc2ccccc2c1 (centres undefined) |  | > 100 |  |
| O=C(CSc1ccccn1)Nc1ccc2ccccc2c1 | 8.69 | > 100 |  |
| Nc1ccc2cc(Br)ccc2c1 | 0.632 | > 100 |  |
| NC(=O)c1ccc(NC(=O)COC(=O)c2c3c(nc4ccccc24)/C(=C\c2cccs2)CCC3)cc1 | 0.572 | 9.77 | 7.95 |
| Cc1cc2ncn(/N=C/c3ccc([N+](=O)[O-])s3)c2cc1C | < 0.195 | 0.282 | 8.74 |
| CC(C)c1ccc(NC(=O)COc2ccc(C3SCCS3)cc2)cc1 |  | > 100 |  |
| COc1ccc(N/C=C/C(=O)c2sc(-c3ccccc3)nc2C)cc1 | 69.2 | > 100 | > 40 |
| Cn1c(-c2ccccc2)c(C(=O)CCl)c2ccccc21 | 1.69 | 4.57 | 4.07 |
| CCCOC(=O)c1ccc(NC(=O)c2cnccn2)cc1 | 15 | > 100 |  |
| Cc1cc(NC(=O)c2c(F)cccc2Cl)n(-c2nc3ccccc3[nH]2)n1 | 16.5 | 25.9 | > 40 |
| O=C1CC(=C(c2ccccc2)c2ccccc2)C(=O)N1CCCCN1CCN(c2ccccc2)CC1 | 17.8 | 22.7 | > 40 |
| COc1ccccc1C(=O)Nc1nnc(-c2ccc(Cl)cc2)o1 | 16.9 | > 100 | > 40 |
| CN(C)CCCNc1cc(C(C)(C)C)nc2c(-c3ccc(Cl)cc3)cnn12 | 0.874 | 1.37 | 9.25 |

| Compound | IC50 [µM] | IC90 [µM] | CC50 [µM] |
| --- | --- | --- | --- |
| CC(=O)c1ccc(OCC(=O)Nc2ccc3c(c2)CCC3)cc1 | 12.6 | > 100 | > 40 |
| COc1ccc(C2/C=C\CN(C(=O)Nc3ccc(C(F)(F)F)cc3)CC(=O)N2Cc2ccc(F)cc2)cc1 (centres undefined) | 5.74 | 6.73 | 16.7 |
| CCCCCCCCC/C(=N\O)c1ccccn1 | 1.55 | 1.68 | 13.2 |
| O=C(Nc1nccs1)c1ccccn1 | 6.09 | 15.7 | > 40 |
| OC(CN1CCN(c2ccccn2)CC1)Cn1c2ccc(Cl)cc2c2cc(Cl)ccc21 (centres undefined) | 2.31 | 3.12 | 21.5 |
| Brc1c(CSc2nncc3ccccc23)nc2ccccn12 | 5.58 | 16.3 | > 40 |
| CC1CCCC(NCC(O)COC(c2ccc(F)cc2)c2ccc(F)cc2)C1C (centres undefined) | 5.69 | 6.42 | 24.3 |
| Cc1cc(C)n(C(=O)c2ccc([N+](=O)[O-])cc2[N+](=O)[O-])n1 | 7.05 | 12.6 |  |
| Cc1cccc(OCCCCc2c(C)n[nH]c2C)c1C | 2.75 | 3.87 | 30.2 |
| CN1/C(=C\C(=O)c2cccs2)Sc2ccccc21 | 5.65 | 13.6 | > 40 |
| Cc1ccc(S/C=C\C(=O)c2ccccc2)cc1 | 5.51 | 8.53 |  |
| O=C(Nc1ncc(Cc2cccc(Cl)c2)s1)C1=NCCN1 | 6.98 | > 100 | > 40 |
| N#Cc1ccc(/C=C/C(=O)c2ccccc2)cc1 | 5.89 | 7.86 | > 40 |
| O=C(c1cc2nc(-c3ccccc3)cc(-c3ccccc3)n2n1)N1CCN(C(=O)c2ccco2)CC1 | 5.92 | 17.6 | > 40 |
| CCOC(=O)c1ccc(NS(=O)C23CC4CC(CC(C4)C2)C3)cc1 (centres undefined) | 7.62 | > 100 |  |
| Cn1c(COc2cccc3ccccc23)nnc1SCC(=O)OC1CCCCC1 | 2.3 | 6.77 |  |
| CSc1ccccc1NC(=O)c1cc(C2CC2)on1 | 23.6 | 26.7 |  |
| O=C(CCl)NC1CCCc2ccccc21 (centres undefined) | 20.6 | > 100 | 32.5 |
| COC(=O)COc1cccc(NC(=O)COc2ccccc2)c1 | 2.72 | 4 |  |
| CC1=CC(C)(C)Nc2ccc(OC(=O)c3ccco3)cc21 | 54.4 | > 100 | > 40 |
| Nc1nc(-c2ccccn2)nc(N)c1Cc1c(F)cccc1Cl | < 0.391 | 0.451 | 4.76 |
| CCOC(=O)CSc1ncnc2c1cnn2-c1ccccc1 | 1.37 | 14.6 |  |
| COC(=O)CSc1nc2c(c(-c3ccc(C)o3)c1C#N)CCCC2 | 2.66 | 3.47 |  |
| CCOC(=O)CSc1ccc(-c2nc3ccccc3[nH]2)cn1 | 2.98 | 5.54 | > 40 |
| CCOc1ccc(-c2nnc(SCC(=O)Nc3cc(C)on3)o2)cc1 | 1.63 | 1.95 | > 40 |
| O=C(Nc1nc2ccccc2s1)C1c2ccccc2Oc2ccccc21 |  | > 100 | > 40 |
